Test results published in patent publication US4207343A, “1-Phenyl-3-(substituted phenoxy)propylamines” (priority 1978, dated 1980).
pIC50, pKi: −log10 of the molar value.

Columns and labels:
[1] = system: uptake of serotonin by platelets; settings: human platelet-rich plasma; estimated value
Description: A study of the uptake of serotonin from platelets was carried out as follows: platelet-rich plasma from human volunteers was prepared according to the method of Sneddon, Brit. […] The platelet uptake of serotonin was determined by the procedure of Horng and Wong, Biochem. Pharmacol., 25, 865 (1976).

[2] = molecular target: dopamine uptake from synaptosomes isolated from corpus striatum (Rattus norvegicus, UniProt P23977); test: Inhibition of dopamine uptake in synaptosomes isolated from corpus striatum
Chain of dopamine uptake from synaptosomes isolated from corpus striatum (P23977 whole entry): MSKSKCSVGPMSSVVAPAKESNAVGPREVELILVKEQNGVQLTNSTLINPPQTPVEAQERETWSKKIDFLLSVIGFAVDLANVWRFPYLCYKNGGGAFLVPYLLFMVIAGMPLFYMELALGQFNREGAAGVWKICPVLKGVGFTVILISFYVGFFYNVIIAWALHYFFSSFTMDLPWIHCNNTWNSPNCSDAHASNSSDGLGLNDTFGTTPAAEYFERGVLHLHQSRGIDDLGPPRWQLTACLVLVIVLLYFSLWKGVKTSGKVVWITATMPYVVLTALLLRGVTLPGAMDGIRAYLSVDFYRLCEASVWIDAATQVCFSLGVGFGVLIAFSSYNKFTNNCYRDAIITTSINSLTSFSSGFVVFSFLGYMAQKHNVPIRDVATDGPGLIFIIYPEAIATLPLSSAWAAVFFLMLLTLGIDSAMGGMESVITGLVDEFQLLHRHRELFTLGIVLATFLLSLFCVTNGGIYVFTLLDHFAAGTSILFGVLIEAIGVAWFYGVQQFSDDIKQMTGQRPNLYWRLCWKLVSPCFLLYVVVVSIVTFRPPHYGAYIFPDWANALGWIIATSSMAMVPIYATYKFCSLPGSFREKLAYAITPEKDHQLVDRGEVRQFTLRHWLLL

[3] = molecular target: T1, uptake of norepinephrine (Rattus norvegicus, UniProt Q63380); test: Inhibition of norepinephrine uptake in synaptosomes, kinetics; format: biochemical, Sprague-Dawley rats
T1 construct: from tissue; host or cells: synaptosomes of Sprague-Dawley rat brain (cortex, by 'similar experiment')
T1 sequence (Q63380 1-617): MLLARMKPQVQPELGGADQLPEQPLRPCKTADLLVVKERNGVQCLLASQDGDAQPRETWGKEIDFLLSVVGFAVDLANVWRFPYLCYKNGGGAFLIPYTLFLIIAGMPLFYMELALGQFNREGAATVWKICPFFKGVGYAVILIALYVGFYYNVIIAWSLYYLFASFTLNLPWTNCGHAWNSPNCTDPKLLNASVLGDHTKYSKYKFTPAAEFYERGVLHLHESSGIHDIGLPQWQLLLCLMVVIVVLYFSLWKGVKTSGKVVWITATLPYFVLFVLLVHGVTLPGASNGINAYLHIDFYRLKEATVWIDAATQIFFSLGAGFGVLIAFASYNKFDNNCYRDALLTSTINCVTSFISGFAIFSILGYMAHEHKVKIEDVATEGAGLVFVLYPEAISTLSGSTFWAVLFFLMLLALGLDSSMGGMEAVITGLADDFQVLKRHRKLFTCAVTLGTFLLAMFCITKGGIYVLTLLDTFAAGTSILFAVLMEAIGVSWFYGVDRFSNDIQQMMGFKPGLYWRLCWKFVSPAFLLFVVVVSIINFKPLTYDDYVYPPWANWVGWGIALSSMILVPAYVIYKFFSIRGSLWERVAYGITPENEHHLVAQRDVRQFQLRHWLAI
Description: (§3) The uptake of serotonin in cortical synaptosomes and in platelets of human plasma in the presence of this compound were studied. Corticosynaptosomes were prepared as follows: Sprague-Dawley rats weighing about 150 g. were decapitated and their brains immediately removed and dissected. Crude synaptosomes were prepared from a 10 percent homogenate in 0.32 M scurose and in 10 μM glucose by differential centrifugation according to the procedure of Wong and Bymaster (loc. cit.).

[4] = system: uptake of serotonin by hypothalamic synaptosomes; test: In vivo inhibition of serotonin uptake by hypothalamic synaptosomes after intraperitoneal injection; settings: ip, as hydrochloride salt, read-out: calculated ED50 (effective dose), inhibition of serotonin uptake by hypothalamic synaptosomes
Description: (§1) There was also a decrease in norepinephrine uptake at a 100 mg./kg level but the reduction was less than 50% at this high dose level.

[5] = system: uptake of physiologically active monoamines; test: Blocking of uptake of physiologically active monoamines (serotonin, norepinephrine, dopamine); settings: in vitro and in vivo
Text: (§2) This blockade is shown both in vitro using radioactive labelled compounds to determine the amount of monoamine uptake by synaptosomes from rat brain, and in vivo by a variety of methods using the procedure of Wong and Bymaster, Biochem. Pharmacol., 25, 1978 (1976). Among the physiologically active monoamines whose uptake is blocked by the compounds of this invention are included serotonin, norepinephrine and dopamine (3,4-dihydroxyphenylethylamine). […] Table 1 which follows sets forth the results of some of the in vitro determinations of the blockage of monoamine uptake by the compounds of this invention. In the table, column 1 gives the R substituent on the 1-phenylpropylamine, colums 2 and 3, the R^1 and R^2 substituents on the amine nitrogen and columns […], the concentration in micrograms per ml. that blocks the uptake of a particular amine by 50 percent (IC50) for the amines, serotonin and norephinephrine. At the head of each column is given the concentration of the particular monoamine used in the experiment.

[6] = molecular target: uptake of serotonin in cortical synaptosomes (Rattus norvegicus, UniProt P31652); test: Inhibition of serotonin uptake in cortical synaptosomes, kinetics; format: biochemical, Sprague-Dawley rats
Chain of uptake of serotonin in cortical synaptosomes (P31652 whole entry): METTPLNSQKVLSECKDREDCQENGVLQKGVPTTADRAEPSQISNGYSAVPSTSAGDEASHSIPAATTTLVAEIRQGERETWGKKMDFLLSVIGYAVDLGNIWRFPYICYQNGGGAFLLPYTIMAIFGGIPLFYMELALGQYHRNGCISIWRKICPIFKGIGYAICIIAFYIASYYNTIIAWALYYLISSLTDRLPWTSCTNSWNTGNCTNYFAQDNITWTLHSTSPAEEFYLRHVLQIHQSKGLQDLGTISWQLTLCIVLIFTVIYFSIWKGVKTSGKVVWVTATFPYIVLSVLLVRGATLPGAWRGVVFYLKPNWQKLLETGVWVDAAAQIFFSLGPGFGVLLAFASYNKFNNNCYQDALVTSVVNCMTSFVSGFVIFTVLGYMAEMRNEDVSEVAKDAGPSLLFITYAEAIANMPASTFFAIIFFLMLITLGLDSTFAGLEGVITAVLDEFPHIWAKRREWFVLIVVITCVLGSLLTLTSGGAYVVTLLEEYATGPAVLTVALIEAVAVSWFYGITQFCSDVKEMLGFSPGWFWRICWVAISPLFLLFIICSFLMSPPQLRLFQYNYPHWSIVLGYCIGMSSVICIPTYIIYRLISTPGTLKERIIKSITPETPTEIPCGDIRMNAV
Description: as §3

[7] = system: norepinephrine uptake; test: In vivo decrease in norepinephrine uptake after intraperitoneal injection; settings: 100 mg./kg level, hydrochloride salt
Description: as §1

[8] = system: norepinephrine uptake by synaptosomes from rat brain; test: Blockage of norepinephrine uptake in vitro by synaptosomes from rat brain (Table 1); format: biochemical; settings: norepinephrine 0.48 μuM, read-out: IC50 Norepinephrine (concentration that blocks uptake by 50 percent)
Text: as §2

[9] = system: serotonin uptake by synaptosomes from rat brain; test: Blockage of serotonin uptake in vitro by synaptosomes from rat brain (Table 1); format: biochemical; settings: serotonin 0.1 μuM, read-out: IC50 Serotonin (concentration that blocks uptake by 50 percent)
Text: as §2

[10] = system: serotonin uptake versus norepinephrine uptake; test: Relative effectiveness in inhibiting serotonin versus norepinephrine uptake
[11] = system: chronic undifferentiated schizophrenic patients; settings: oral administration, cited from earlier work

## Cc1ccc(OCCC(c2ccccc2)N(C)C)cc1 (stereo not shown)
[1]
  estimated IC50, serotonin uptake by platelets: 14 nmol
[2]
  pKi: 5.60
[3]
  mode of inhibition of norepinephrine uptake: competitively inhibited the uptake of norepinephrine
[3]; synaptosomes, competitive, read-out: inhibitory constant KI, norepinephrine uptake
  pKi: 5.66
[4]
  ED50: 12 mg/kg
[5]
  block of uptake of monoamines (in words): particularly active in inhibiting the uptake of biogenic amines
[6]; 0.01, 0.05 and 0.1 μM
  mode of inhibition of serotonin uptake: competitively inhibited uptake of serotonin
[6]; cortical synaptosomes, compound at 0.01, 0.05 and 0.1 μM, competitive, read-out: inhibitor constant KI, serotonin uptake
  pKi: 7.22
[7]
  reduction in norepinephrine uptake: less than 50%
[8]
  pIC50: 5.30
[9]
  pIC50: 7.10
[10]
  relative effectiveness, serotonin versus norepinephrine uptake (in words): far more effective in inhibiting serotonin uptake than in inhibiting norepinephrine uptake

## N[C@@H](Cc1c[nH]c2ccc(O)cc12)C(=O)O [l-5-hydroxytryptophane]
[11]; 6 of 7 patients
  number of schizophrenic patients improved, of 7: 6 patients
[11]
  improvement in schizophrenic patients (in words): mild to moderate improvement

## COc1cccc(OCCC(N)c2ccccc2)c1 (stereo not shown) [m-anisyl, H, H, 1-Phenyl-3-(m-anisyloxy)propylamine]
[8]
  pIC50: 5.52
[9]
  pIC50: 5.70

## Cc1cccc(OCCC(c2ccccc2)N(C)C)c1 (stereo not shown) [m-tolyl, CH3, CH3]
[8]
  pIC50: 5.29
[9]
  pIC50: 7.10

## Cc1cccc(OCCC(N)c2ccccc2)c1 (stereo not shown) [m-tolyl, H, H]
[8]
  pIC50: 5.24
[9]
  pIC50: 5.85

## COc1ccccc1OCCC(c1ccccc1)N(C)C (stereo not shown) [o-anisyl, CH3, CH3, N,N-dimethyl 3-(o-anisyloxy)-1-phenylpropylamine]
[8]
  pIC50: 6.52
[9]
  pIC50: 7.00

## CNC(CCOc1ccccc1OC)c1ccccc1 (stereo not shown) [o-anisyl, CH3, H, N-methyl 1-phenyl-3-(o-anisyloxy)propylamine]
[8]
  pIC50: 6.30
[9]
  pIC50: 6.30

## COc1ccccc1OCCC(N)c1ccccc1 (stereo not shown) [o-anisyl, H, H, 1-phenyl-3-(o-anisyloxy)propylamine]
[8]
  pIC50: 5.85
[9]
  pIC50: 5.37

## Cc1ccccc1OCCC(N)c1ccccc1 (stereo not shown) [o-tolyl, H, H, 3-(o-cresol)-1-phenylpropylamine]
[8]
  pIC50: 5.34
[9]
  pIC50: 6.46

## COc1ccc(OCCC(c2ccccc2)N(C)C)cc1 (stereo not shown) [p-anisyl, CH3, CH3, N,N-dimethyl 3-(p-anisyloxy)-1-phenylpropylamine]
[8]
  pIC50: 5.29
[9]
  pIC50: 6.55

## COc1ccc(OCCC(N)c2ccccc2)cc1 (stereo not shown) [p-anisyl, H, H, 3-(p-anisyloxy)-1-phenylpropylamine]
[8]
  pIC50: 5.15
[9]
  pIC50: 6.46

## Cc1ccc(OCCC(N)c2ccccc2)cc1 (stereo not shown) [p-tolyl, H, H]
[8]
  pIC50: 5.68
[9]
  pIC50: 6.40

## CN(C)C(CCOc1ccc(C(F)(F)F)cc1)c1ccccc1 (stereo not shown) [p-trifluoromethylphenyl, CH3, CH3, N,N-dimethyl 1-phenyl-3-(p-trifluoromethylphenoxy)-propylamine]
[8]
  pIC50: 5.00
[9]
  pIC50: 6.68

## CNC(CCOc1ccc(C(F)(F)F)cc1)c1ccccc1 (stereo not shown) [p-trifluoromethylphenyl, CH3, H, N-methyl 1-phenyl-3-(p-trifluoromethylphenoxy)-propylamine]
[8]
  pIC50: 5.00
[9]
  pIC50: 6.68

## NC(CCOc1ccc(C(F)(F)F)cc1)c1ccccc1 (stereo not shown) [p-trifluoromethylphenyl, H, H, 1-phenyl-3-(p-trifluoromethylphenoxy)propylamine]
[8]
  pIC50: 5.00
[9]
  pIC50: 6.49

## CN(C)C(CCOc1ccccc1)c1ccccc1 (stereo not shown) [phenyl, CH3, CH3, N,N-dimethyl 1-phenyl-3-phenoxypropylamine]
[8]
  pIC50: 6.15
[9]
  pIC50: 6.00

## CNC(CCOc1ccccc1)c1ccccc1 (stereo not shown) [phenyl, CH3, H, N-methyl 3-phenoxy-1-phenylpropylamine]
[8]
  pIC50: 6.44
[9]
  pIC50: 6.00

## NC(CCOc1ccccc1)c1ccccc1 (stereo not shown) [phenyl, H, H, 1-Phenyl-3-phenoxypropylamine]
[8]
  pIC50: 6.25
[9]
  pIC50: 5.25
